Measured values taken from patent US20040223977A1, “Fusion peptide HIV vaccines” (City of Hope, priority 2003, published 2004).
Square brackets hold non-standard residues; d marks the D form. Peptide text beside a SMILES is read from it. Cha = N[C@@H](CC1CCCCC1)C(=O)O

Key:
[1] = tested on: naïve HLA A2/K^b splenocytes; experiment: Lymphocyte proliferation assay (3H-thymidine incorporation); type: cell-based, transgenic HLA A2/K^b mice; details: 48 hours culture, up to 1.6 μM ODN
Description: A naïve transgenic A2/K^b spleen cell suspension was prepared as described for immunized splenocytes in Example 4. Following the removal of erythrocytes using red cell lysis buffer (0.15 M NH4Cl, 1 mM KHCO3, 0.1 mM Na2EDTA in distilled H2O) and subsequent washing, the concentration was adjusted to 4×10^6 cells/ml in complete in vitro stimulation (IVS) medium. One hundred microliters of splenocyte suspension was plated onto 96 well U-bottomed plate along with 100 μl of serially diluted CpG DNA in serum-free IVS medium. Concanavalin A (Sigma, St. Louis, Mo.) at a concentration of 5 μg/ml and unstimulated splenocytes were used as positive and negative controls respectively. […] Levels of TdR uptake were determined by liquid scintillation using a TriLux counter (Wallac, […]). Results were expressed as a stimulation index (SI) compared to unstimulated splenocytes.
In vitro analysis of the proliferative effect of two synthetic ODNs was conducted using naïve HLA A2/K^b splenocytes. […] Proliferative responses were determined by ^3H-thymidine incorporation using naïve transgenic A2/K^b splenocytes cultured with immunostimulatory ODN 1826 (SEQ ID NO:5; black bar) or control ODN sequence 1984 (SEQ ID NO:6; white bar) for 48 hours. […]

[2] = tested on: IV9 peptide-loaded T2 cells
[3] = tested on: T2 target cells pulsed with SEQ ID NO:10; experiment: Chromium release assay after immunization with SEQ ID NO:11, T2 targets pulsed with SEQ ID NO:10; type: in vivo, HLA A2.1/Kb transgenic mice

Q: With “5′ TCCAGGACTTCTCTCAGGTT 3′ (chemistry not given here) [ODN 1984]” as the compound, how does the “proliferative response (stimulation index)” value [1] read?
A: Its value is “little or no proliferation”.

Q: 5′ TCCATGACGTTCCTGACGTT 3′ [ODN 1826] was tested. Which “amount of CpG DNA per dose capable of augmenting the CTL response” value ([2]; co-administered with fusion peptide (50 nmoles PADRE-IV9 elsewhere in the source), s.c., saline) did it give?
A: Its value is no more than 1 µg.

Q: And the “plateau of CTL response” value ([2]; with 50 nmoles PADRE-IV9, E:T of 6, up to 25 μg CpG DNA)?
A: Its value is “no clear plateau”.

Q: And the “proliferative response (stimulation index)” value [1]?
A: Its value is “potent generalized proliferative response”.

Q: With `CC[C@H](C)[C@H](NC(=O)[C@H](C)NC(=O)[C@H](C)NC(=O)[C@H](C)NC(=O)[C@H](CCCCN)NC(=O)[C@H](CC(C)C)NC(=O)[C@@H](NC(=O)[C@H](Cc1c[nH]c2ccccc12)NC(=O)[C@H](C)NC(=O)[C@H](C)NC(=O)[C@@H](NC(=O)[C@H](CC1CCCCC1)NC(=O)[C@H](CCCCN)NC(=O)[C@H](C)N)C(C)C)[C@@H](C)O)C(=O)N[C@@H](CC(C)C)C(=O)N[C@@H](CCCCN)C(=O)N[C@@H](CCC(=O)O)C(=O)N1CCC[C@H]1C(=O)N[C@H](C(=O)N[C@@H](Cc1c[nH]cn1)C(=O)NCC(=O)N[C@H](C(=O)O)C(C)C)C(C)C` [PADRE-IV9, AKXVAAWTLKAAAILKEPVHGV] (H-AK[Cha]VAAWTLKAAAILKEPVHGV-OH) as the compound, how does the cytotoxicity ([2]; between 10-15 nmoles of peptide, E:T ratio of 25) read?
A: Its cytotoxicity is “approximately 15%”.

Q: How did the “specific recognition (non-specific recognition subtracted)” value ([3]; 25 nmoles with 25 μg ODN 1826 s.c., E:T 4) turn out when “KSSAKXVAAWTLKAAASLYNTVATL [SEQ ID NO:11, PADRE-Gag77-85 fusion peptide]” was run?
A: Its value is 41%.

Q: And the “specific recognition (non-specific recognition subtracted)” value ([3]; 25 nmoles with 25 μg ODN 1826 s.c., E:T 20)?
A: Its value is 62%.

Q: And the “specific recognition (non-specific recognition subtracted)” value ([3]; 25 nmoles with 25 μg ODN 1826 s.c., E:T 100)?
A: The value was 49%.

Q: What about the “specific recognition (non-specific recognition subtracted)” value ([3]; 50 nmoles with 25 μg ODN 1826 s.c., E:T 4) of the same compound?
A: Its value is 9.3%.

Q: And the “specific recognition (non-specific recognition subtracted)” value ([3]; 50 nmoles with 25 μg ODN 1826 s.c., E:T 20)?
A: The value was 30%.

Q: What about the “specific recognition (non-specific recognition subtracted)” value ([3]; 50 nmoles with 25 μg ODN 1826 s.c., E:T 100) of the same compound?
A: The value was 33%.
